Measurements reported in the supplement of paper PMC10307832.

Assays:
Experiment in all cases: relative viability (nuclei count vs DMSO), 5 days (fraction); higher = more cells survive
[1] = compound: CC[C@H](C)N1C=C(C2=C(C=C(C=C21)C3=CN=C(C=C3)N4CCNCC4)C(=O)NCC5=C(C=C(NC5=O)C)C)C [GSK126] + CC1(C)CCC(c2ccc(Cl)cc2)=C(CN2CCN(c3ccc(C(=O)NS(=O)(=O)c4ccc(N[C@H](CCN5CCOCC5)CSc5ccccc5)c(S(=O)(=O)C(F)(F)F)c4)cc3)CC2)C1 [Navitoclax] (partner 0.5 µM)
Outline: (§1)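 Relative viability equals treated-well nuclei counts divided by vehicle-well nuclei counts. Counts came from 4× images of lung cancer cell lines grown in 1536-well plates for 5 days after pin-tool dosing on the day after seeding. Dosing used one drug alone or a fixed anchor-drug dose plus five library-drug doses (not always all listed) in √10 steps, and values are medians of duplicate plates.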

[2] = compound: NS(=O)(=O)OC[C@@H]1C[C@@H](n2ccc3c(N[C@H]4CCc5ccccc54)ncnc32)C[C@@H]1O [MLN4924] + COc1cccc2cc(-c3nc([C@H]4CC[C@H](C(=O)O)CC4)n4ncnc(N)c34)[nH]c12 [OSI-027] (partner 0.5 µM)
Outline: as §1

[3] = compound: C1CC(C1)(C(=O)O)C(=O)O.[NH2-].[NH2-].[Pt+2] [Carboplatin] + CCNC(=O)c1noc(-c2cc(C(C)C)c(O)cc2O)c1-c1ccc(CN2CCOCC2)cc1 [Luminespib] (partner 0.01 µM)
Outline: as §1

[4] = compound: C1CC(C1)(C(=O)O)C(=O)O.[NH2-].[NH2-].[Pt+2] [Carboplatin] + CS(=O)(=O)CCNCc1ccc(-c2ccc3ncnc(Nc4ccc(OCc5cccc(F)c5)c(Cl)c4)c3c2)o1 [Lapatinib] (partner 2 µM)
Outline: as §1

| Cell Line | relative viability ([1]; first compound 0.08 µM) | relative viability ([1]; first compound 0.253 µM) | relative viability ([1]; first compound 0.8 µM) | relative viability ([1]; first compound 2.53 µM) | relative viability ([1]; first compound 8 µM) | relative viability ([2]; first compound 0.04 µM) | relative viability ([2]; first compound 0.1265 µM) | relative viability ([2]; first compound 0.4 µM) | relative viability ([2]; first compound 1.265 µM) | relative viability ([2]; first compound 4 µM) | relative viability ([3]; first compound 0.08 µM) | relative viability ([3]; first compound 0.253 µM) | relative viability ([3]; first compound 0.8 µM) | relative viability ([3]; first compound 2.53 µM) | relative viability ([3]; first compound 8 µM) | relative viability ([4]; first compound 0.08 µM) | relative viability ([4]; first compound 0.253 µM) | relative viability ([4]; first compound 0.8 µM) | relative viability ([4]; first compound 2.53 µM) | relative viability ([4]; first compound 8 µM) |
| --- | --- | --- | --- | --- | --- | --- | --- | --- | --- | --- | --- | --- | --- | --- | --- | --- | --- | --- | --- | --- |
| HCC-44 | 0.963 | 0.981 | 0.853 | 0.906 | 1.01 | 0.423 | 0.263 | 0.171 | 0.216 | 0.233 | 1.16 | 0.755 | 0.406 | 0.305 | 0.31 | 1.03 | 1.01 | 0.984 | 0.965 | 0.968 |
| NCI-H3122 | 1.04 | 1.06 | 1.05 | 1 | 1.02 | 0.917 | 0.603 | 0.219 | 0.122 | 0.121 | 0.102 | 0.0787 | 0.0812 | 0.09 | 0.0968 | 1.1 | 1 | 0.981 | 0.953 | 0.995 |
| NCI-H1650 | 1.33 | 1.19 | 1.1 | 1.12 | 1.06 | 0.564 | 0.379 | 0.184 | 0.102 | 0.17 | 0.212 | 0.217 | 0.189 | 0.215 | 0.196 | 0.944 | 0.878 | 0.825 | 0.795 | 0.661 |
| NCI-H1355 | 0.985 | 1.07 | 0.911 | 1.01 | 1.02 | 0.456 | 0.388 | 0.277 | 0.221 | 0.231 | 0.826 | 0.814 | 0.765 | 0.588 | 0.537 | 1.12 | 1.11 | 1.09 | 1.06 | 0.93 |
| NCI-H1734 | 0.895 | 0.845 | 0.843 | 0.881 | 0.86 | 0.498 | 0.832 | 0.304 | 0.124 | 0.142 | 0.21 | 0.236 | 0.193 | 0.188 | 0.174 | 1.01 | 1.07 | 1.06 | 1.01 | 0.833 |
| LXF-289 | 0.979 | 0.912 | 0.935 | 0.986 | 0.981 | 0.833 | 0.713 | 0.569 | 0.165 | 0.13 | 0.79 | 0.787 | 0.601 | 0.677 | 0.568 | 0.908 | 0.936 | 0.91 | 0.89 | 0.891 |
| RERF-LC-KJ | 1.29 | 1.02 | 1.18 | 0.956 | 0.828 | 0.576 | 0.52 | 0.217 | 0.175 | 0.224 | 1.24 | 1.18 | 1.13 | 0.918 | 0.5 | 0.854 | 0.838 | 0.822 | 0.841 | 0.726 |
| NCI-H2087 | 0.992 | 0.917 | 1.14 | 1.02 | 1.14 | 0.41 | 0.498 | 0.516 | 0.14 | 0.104 | 0.158 | 0.168 | 0.121 | 0.138 | 0.165 | 1.22 | 0.968 | 0.86 | 0.969 | 0.833 |
| NCI-H1793 | 0.503 | 0.491 | 0.379 | 0.369 | 0.416 | 0.293 | 0.26 | 0.303 | 0.243 | 0.261 | 0.153 | 0.172 | 0.187 | 0.185 | 0.17 | 0.941 | 0.49 | 0.485 | 0.628 | 0.833 |
| HCC-827 | 1.07 | 1.03 | 0.987 | 0.967 | 0.95 | 0.794 | 0.558 | 0.686 | 0.151 | 0.159 | 0.653 | 0.675 | 0.441 | 0.452 | 0.3 | 0.236 | 0.175 | 0.18 | 0.187 | 0.224 |
| NCI-H1395 | 1.59 | 1.04 | 1.09 | 1.33 | 0.95 | 0.641 | 0.606 | 0.602 | 0.349 | 0.39 | 0.864 | 0.543 | 0.731 | 0.458 | 0.331 | 1.23 | 1.06 | 0.984 | 0.841 | 0.607 |
| NCI-H23 | 0.847 | 0.837 | 0.895 | 0.996 | 1.03 | 0.514 | 0.497 | 0.244 | 0.136 | 0.177 | 0.194 | 0.237 | 0.208 | 0.173 | 0.233 | 1.16 | 1.25 | 1 | 1.02 | 0.783 |
| HARA | 1.18 | 1.11 | 1.1 | 1.15 | 1.14 | 0.465 | 0.361 | 0.271 | 0.0502 | 0.0686 | 0.847 | 0.756 | 0.701 | 0.573 | 0.752 | 0.816 | 0.842 | 0.841 | 0.654 | 0.695 |
| NCI-H838 | 1.15 | 1.18 | 1.09 | 1.1 | 0.978 | 0.364 | 0.241 | 0.224 | 0.154 | 0.166 | 0.284 | 0.291 | 0.195 | 0.192 | 0.188 | 1.05 | 1.1 | 1.04 | 0.951 | 1.04 |
| NCI-H2023 | 1.04 | 0.984 | 1.04 | 1.09 | 0.995 | 0.383 | 0.361 | 0.163 | 0.0645 | 0.0536 | 0.774 | 0.715 | 0.668 | 0.281 | 0.172 | 0.941 | 1.21 | 0.954 | 0.68 | 0.257 |
